In the supplement of paper PMC13380429:

Columns and labels:
Conditions in all cases: 72 h
Vero E6 [1] = experiment: relative viability EC50 (midpoint between 100% and the lowest measured viability); higher = less toxic
Caco-2 [2] = experiment: as above
HepG2 [3] = experiment: as above
U2OS [4] = experiment: as above
Calu-3 [5] = experiment: as above
Vero E6 [6] = experiment: drug sensitivity score (DSS) for viability; higher = more toxic; extreme values may be limits of the assay
Caco-2 [7] = experiment: as above
HepG2 [8] = experiment: as above
U2OS [9] = experiment: as above
Calu-3 [10] = experiment: as above
Vero E6 [11] = experiment: cell viability relative to DMSO; higher = less toxic
Caco-2 [12] = experiment: as above
HepG2 [13] = experiment: as above
U2OS [14] = experiment: as above
Calu-3 [15] = experiment: as above

SMILES	relative viability EC50 (Vero E6 [1]) [µM]	relative viability EC50 (Caco-2 [2]) [µM]	relative viability EC50 (HepG2 [3]) [µM]	relative viability EC50 (U2OS [4]) [µM]	relative viability EC50 (Calu-3 [5]) [µM]	drug sensitivity score (Vero E6 [6])	drug sensitivity score (Caco-2 [7])	drug sensitivity score (HepG2 [8])	drug sensitivity score (U2OS [9])	drug sensitivity score (Calu-3 [10])	cell viability (Vero E6 [11]; 1 nM) [%]	cell viability (Vero E6 [11]; 10 nM) [%]	cell viability (Vero E6 [11]; 100 nM) [%]	cell viability (Vero E6 [11]; 1000 nM) [%]	cell viability (Vero E6 [11]; 10000 nM) [%]	cell viability (Caco-2 [12]; 1 nM) [%]	cell viability (Caco-2 [12]; 10 nM) [%]	cell viability (Caco-2 [12]; 100 nM) [%]	cell viability (Caco-2 [12]; 1000 nM) [%]	cell viability (Caco-2 [12]; 10000 nM) [%]	cell viability (HepG2 [13]; 1 nM) [%]	cell viability (HepG2 [13]; 10 nM) [%]	cell viability (HepG2 [13]; 100 nM) [%]	cell viability (HepG2 [13]; 1000 nM) [%]	cell viability (HepG2 [13]; 10000 nM) [%]	cell viability (U2OS [14]; 1 nM) [%]	cell viability (U2OS [14]; 10 nM) [%]	cell viability (U2OS [14]; 100 nM) [%]	cell viability (U2OS [14]; 1000 nM) [%]	cell viability (U2OS [14]; 10000 nM) [%]	cell viability (Calu-3 [15]; 1 nM) [%]	cell viability (Calu-3 [15]; 10 nM) [%]	cell viability (Calu-3 [15]; 100 nM) [%]	cell viability (Calu-3 [15]; 1000 nM) [%]	cell viability (Calu-3 [15]; 10000 nM) [%]
NCCc1cc(O)c(O)cc1O [oxidopamine]	> 10	> 10	> 10	> 10	> 10	0	0	0	0	0	97.3	99.6	96.6	91.5	105	86.7	93.3	90.7	95.4	100	97.4	104	114	107	98.7	96	102	94.8	104	103	91.1	101	108	108	109
O=C(NC1CCNCC1)c1n[nH]cc1NC(=O)c1c(Cl)cccc1Cl [AT-7519]	> 10	3.46	0.509	3.19	1.53	0	3.3	14	5.2	5.9	99.6	102	102	99.6	96.6	91.4	93.2	94.2	104	33.5	111	99.4	108	22.5	9.6	103	97.6	100	100	7	100	99	95.9	83.9	37.5
Fc1ccc(CN2CCC(Nc3ccc(C(F)(F)F)nn3)CC2)cc1F	> 10	> 10	> 10	> 10	> 10	0	0	0.8	0	0	90.3	101	97.4	98.5	104	100	95.8	101	94.7	94.1	90.1	108	91.2	88.1	93.4	101	95.5	95.6	102	101	112	97.6	86.9	91.7	107
O=C(O)CSCC(=O)NC1CCSC1=O (stereo not given) [erdosteine]	> 10	> 10	> 10	> 10	> 10	0	0	0	0	0	111	96.9	104	91	96.8	107	102	97	84.8	96.9	90.5	102	94.3	93.8	102	100	105	96.2	97.9	101	99.8	96	102	92.9	98
COc1ccc2[nH]c(SCc3ncc(C)c(OC)c3C)nc2c1 [omeprazole-sulfide]	> 10	> 10	> 10	> 10	> 10	0	0	0	0	0	106	89.6	87.8	94.9	95.7	104	96.1	113	96	101	105	99.6	99	94.4	102	96.8	97.8	96.5	102	96.8	89.7	102	101	103	90.6
O=C(N/N=C/c1ccccc1O)c1ccccc1O [SCS]	3.35	1.6	2.04	1.89	3.11	2.8	8.8	7.5	4.4	5	97.6	100	101	102	45.4	97	97.6	88.6	76.5	3.6	102	94.6	94.1	86.6	5.5	98.7	104	95.6	91.1	46.3	108	94.9	98.2	99.3	11.9
